Measured values taken from patent US8003801B2 (The Scripps Research Institute, priority 2005, dated 2011).
Values joined by “and” are separate entries in the source; they are usually repeats but may differ in a detail not shown here. Equal entries are not always repeated. “Also recorded” adds a separate entry of the source. Where two headings read alike, the source gives them in different places.

Assays:
[1] = test system: 1A9/A8, EpoA-resistant 1A9 cell line (β274 Thr→Ile); experiment: 72 hour growth-inhibition (cytotoxicity) assay, 1A9/A8 cells; type: cell-based, human; settings: for IC50: Homo sapiens, 1A9; for RAEpoB (relative activity), 1A9/A8: ratio of IC50 of EpoB to IC50 of the tested compound in the concurrent assay; for RRp (relative resistance), 1A9/A8: IC50 of 1A9/A8 divided by IC50 of the parental cell line
[2] = test system: 1A9 human ovarian cancer cell line; experiment: 72 hour growth-inhibition (cytotoxicity) assay, 1A9 cells; type: cell-based; settings: for IC50: Homo sapiens, 1A9; for RAEpoB (relative activity), 1A9: ratio of IC50 of EpoB to IC50 of the tested compound in the concurrent assay
[3] = test system: 1A9/PTX10, Taxol-resistant 1A9 cell line (β270 Phe→Val); experiment: 72 hour growth-inhibition (cytotoxicity) assay, 1A9/PTX10 cells; type: cell-based, human; settings: for IC50: Homo sapiens, 1A9/ptx-10; for RAEpoB (relative activity), 1A9/PTX10: ratio of IC50 of EpoB to IC50 of the tested compound in the concurrent assay; for RRp (relative resistance), 1A9/PTX10: IC50 of 1A9/PTX10 divided by IC50 of the parental cell line 1A9
[4] = test system: KB-8511, Taxol-resistant (Pgp-overexpression) KB cell line; settings: human, 72 h
Description: (§1) In addition, further cytotoxicity studies were carried out using a pair of drug-sensitive parental human epidermoid carcinoma cells (KB-31) and its Taxol™-resistant Pgp-overexpressing subline (KB-5811).

[5] = test system: KB-31 human epidermoid cancer cell line; experiment: 72 hour growth-inhibition (cytotoxicity) assay, KB-31 cells; type: cell-based; settings: for IC50: Homo sapiens
[6] = test system: KB-8511, Taxol-resistant (Pgp-overexpression) KB cell line; experiment: 72 hour growth-inhibition (cytotoxicity) assay, KB-8511 cells
Description: as §1

[7] = test system: A2780/AD10, drug-resistant clone of human ovarian carcinoma A2780 overexpressing P-glycoprotein; experiment: 72 hour growth-inhibition (cytotoxicity) assay, A2780/AD10 cells; type: cell-based; settings: for IC50: Homo sapiens, A2780, 72 hour growth inhibition, sulforhodamine-B staining, mean of 3-5 experiments ± SEM; for RRp (relative resistance), A2780/AD10: IC50 of A2780/AD10 divided by IC50 of the parental cell line; for potency enhancement over EpoB, A2780/AD10: PgP-overexpressing cell line
[8] = test system: drug-sensitive and drug-resistant human cancer cell lines; experiment: Cytotoxicity assays across the panel of cell lines (summary in words); type: cell-based; settings: summary of Tables 1A-1C
[9] = Table 2, tested epothilone, unit from Table 1A note a, read-out: IC50, 1A9/A8 (Table 2)
[10] = Table 2, tested epothilone, unit from Table 1A note a, read-out: IC50, 1A9 (Table 2)
[11] = Table 2, tested epothilone, unit from Table 1A note a, read-out: IC50, 1A9/PTX10 (Table 2)
[12] = 72 hour growth inhibition, sulforhodamine-B staining, mean of 3-5 experiments ± SEM, read-out: 1A9/A8 IC50
[13] = 72 hour growth inhibition, sulforhodamine-B staining, mean of 3-5 independent experiments ± standard error of the mean, read-out: 1A9 IC50
[14] = 72 hour growth inhibition, sulforhodamine-B staining, mean of 3-5 experiments ± SEM, read-out: 1A9/PTX10 IC50
[15] = read-out: IC50, KB-5811 (Table 2), Table 2, tested epothilone, cell line KB-5811, unit from Table 1A note a
[16] = read-out: KB-8511 IC50, 72 hour growth inhibition, methylene blue staining, mean of 3-5 experiments ± SEM
[17] = KB 3-1, 72 h, read-out: KB-31 IC50
[18] = KB 3-1, read-out: IC50, KB-31 (Table 2)

CSc1nc(/C=C(\C)[C@@H]2C[C@@H]3O[C@]3(C)CCC[C@H](C)[C@H](O)[C@@H](C)C(=O)C(C)(C)[C@@H](O)CC(=O)O2)cs1 [Compound 3, reference compound]
IC50 [1, 9]: 1.3 nM
RAEpoB (relative activity), 1A9/A8 [1]: 5.0
IC50 [2, 10]: 0.17 nM
RAEpoB (relative activity), 1A9 [2]: 1.8
IC50 [3, 11]: 0.26 nM
RAEpoB (relative activity), 1A9/PTX10 [3]: 14.2
IC50 [4]: 0.07 nM
IC50 ([5]; KB 3-1, Table 2, tested epothilone, unit from Table 1A note a, read-out: IC50, KB-31 (Table 2)): 0.11 nM

C/C(=C\c1ccn(C)n1)[C@@H]1C[C@@H]2O[C@]2(C)CCC[C@H](C)[C@H](O)[C@@H](C)C(=O)C(C)(C)[C@@H](O)CC(=O)O1 [Compound 14]
IC50 [1, 12]: 0.8 ± 0.3 nM
IC50 [1, 9]: 0.8 nM
RRp (relative resistance), 1A9/A8 [1]: 1.6
RAEpoB (relative activity), 1A9/A8 [1]: 12.5
IC50 [2, 13]: 0.5 ± 0.3 nM
IC50 [2, 10]: 0.5 nM
RAEpoB (relative activity), 1A9 [2]: 2.0
IC50 [3, 14]: 1.7 ± 1.1 nM
IC50 [3, 11]: 1.7 nM
RRp (relative resistance), 1A9/PTX10 [3]: 3.4
RAEpoB (relative activity), 1A9/PTX10 [3]: 4.6
IC50 [6, 15]: 0.25 nM
IC50 [6, 16]: 0.25 ± 0.04 nM
IC50 [5, 17]: 0.19 ± 0.01 nM
IC50 [5, 18]: 0.19 nM
IC50 [7]: 25.5 ± 15.1 nM
RRp (relative resistance), A2780/AD10 [7]: 4.7
potency enhancement over EpoB, A2780/AD10 [7]: 20 fold
cytotoxicity across the tested cell lines, in words [8]: more potent cytotoxicities than EpoB across the board

CC(=O)SCc1nc(/C=C(\C)[C@@H]2C[C@@H]3O[C@]3(C)CCC[C@H](C)[C@H](O)[C@@H](C)C(=O)C(C)(C)[C@@H](O)CC(=O)O2)cs1 [Compound 6]
IC50 [1, 12]: 49.8 ± 34.5 nM
RRp (relative resistance), 1A9/A8 [1]: 9.2
IC50 [2, 13]: 5.4 ± 1.1 nM
IC50 [3, 14]: 28.2 ± 9.3 nM
RRp (relative resistance), 1A9/PTX10 [3]: 5.2
IC50 [6, 16]: 8.39 ± 1.37 nM
IC50 [5, 17]: 1.18 ± 0.12 nM
IC50 [7]: 8.6 ± 3.3 nM
RRp (relative resistance), A2780/AD10 [7]: 45.3
cytotoxicity across the tested cell lines, in words [8]: less potent than EpoB, exhibited high potency against several of the tested cell lines

CSc1cc(/C=C(\C)[C@@H]2C[C@@H]3O[C@]3(C)CCC[C@H](C)[C@H](O)[C@@H](C)C(=O)C(C)(C)[C@@H](O)CC(=O)O2)nn1C [Compound 16]
potency (activity) increase as compared to EpoB, 1A9/A8 ([1]; EpoA-resistant cell line): 17 fold and 16.7 fold
IC50 [1, 12]: 0.6 ± 0.5 nM
IC50 [1, 9]: 0.6 nM
RRp (relative resistance), 1A9/A8 [1]: 10.0
RAEpoB (relative activity), 1A9/A8 [1]: 16.7
potency (activity) increase as compared to EpoB, 1A9 ([2]; 1A9 parental cell line): 17 fold and 16.5 fold
IC50 [2, 13]: 0.06 ± 0.04 nM
IC50 [2, 10]: 0.06 nM
RAEpoB (relative activity), 1A9 [2]: 16.5
IC50 [3, 14]: 0.1 nM
IC50 [3, 11]: 0.1 nM
RRp (relative resistance), 1A9/PTX10 [3]: 1.7
potency increase as compared to EpoB, 1A9/PTX10 ([3]; Taxol-resistant cell line): 78 fold and 78.0 fold
RAEpoB (relative activity), 1A9/PTX10 [3]: 78.0
IC50 [6, 15]: 0.14 nM
IC50 [6, 16]: 0.14 ± 0.01 nM
IC50 [5, 17]: 0.09 ± 0.01 nM
IC50 [5, 18]: 0.09 nM
potency increase as compared to EpoB, KB cell lines ([5]; KB cell lines (KB-31 and KB-8511 together)): 3-5 fold
IC50 [7]: 30.3 ± 17.7 nM
RRp (relative resistance), A2780/AD10 [7]: 8.2
potency enhancement over EpoB, A2780/AD10 [7]: 4 fold
cytotoxicity across the tested cell lines, in words [8]: the most potent of all compounds tested; also recorded: outperformed EpoB in all five cancer cell lines tested

CSCc1nc(/C=C(\C)[C@@H]2C[C@@H]3O[C@]3(C)CCC[C@H](C)[C@H](O)[C@@H](C)C(=O)C(C)(C)[C@@H](O)CC(=O)O2)cs1 [Compound 5]
IC50 [1, 12]: 18.6 ± 11.3 nM
RRp (relative resistance), 1A9/A8 [1]: 5.2
IC50 [2, 13]: 3.6 ± 1.4 nM
IC50 [3, 14]: 43.3 ± 12 nM
RRp (relative resistance), 1A9/PTX10 [3]: 12.0
IC50 [6, 16]: 1.97 ± 0.25 nM
IC50 [5, 17]: 1.38 ± 0.05 nM
IC50 [7]: 82.2 ± 49.6 nM
RRp (relative resistance), A2780/AD10 [7]: 15.2
cytotoxicity across the tested cell lines, in words [8]: less potent than EpoB, exhibited high potency against several of the tested cell lines

C/C(=C\c1nccn1C)[C@@H]1C[C@@H]2O[C@]2(C)CCC[C@H](C)[C@H](O)[C@@H](C)C(=O)C(C)(C)[C@@H](O)CC(=O)O1 [Compound 8]
IC50 [1, 12]: 242 nM
RRp (relative resistance), 1A9/A8 [1]: 2.5
IC50 [2, 13]: 95.5 ± 13.4 nM
IC50 [3, 14]: > 750 nM
IC50 [6, 16]: > 1000 nM
IC50 [5, 17]: 69.9 ± 5.31 nM
IC50 [7]: 760 nM
RRp (relative resistance), A2780/AD10 [7]: 1.4
cytotoxicity across the tested cell lines, in words [8]: significantly lower activities

C/C(=C\c1ccn(-c2ccccc2)n1)[C@@H]1C[C@@H]2O[C@]2(C)CCC[C@H](C)[C@H](O)[C@@H](C)C(=O)C(C)(C)[C@@H](O)CC(=O)O1 [Compound 15]
IC50 [1, 12]: 4.8 ± 3.6 nM
RRp (relative resistance), 1A9/A8 [1]: 0.9
IC50 [2, 13]: 5.45 ± 3.7 nM
IC50 [3, 14]: 25.8 ± 19.8 nM
RRp (relative resistance), 1A9/PTX10 [3]: 4.7
IC50 [6, 16]: 1.62 ± 0.14 nM
IC50 [5, 17]: 2.27 ± 0.16 nM
IC50 [7]: 6.4 nM
RRp (relative resistance), A2780/AD10 [7]: 107
cytotoxicity across the tested cell lines, in words [8]: somewhat less active
